Results on two compounds are retold here after patent publication EP4624457A1, “I[…] DERIVATIVES, I[…] NEURODEGENERATIVE DISEASES” (Centre National de la Recherche Scientifique, priority 2024, dated 2025).

SMILES strings stand for the structures. “And” between values parts separate entries of the source, which are not always exact repeats. Equal entries are not always repeated. Where two headings read alike, the source gives them in different places.

One data set addresses T1, human α7 nAChR subtype (Homo sapiens, UniProt P36544).
T1 construct: expressed in transfected cells; host or cells: Xenopus laevis oocytes injected with mRNA
The data set can be described thus: Two-electrode voltage clamp electrophysiology on Xenopus laevis oocytes expressing the α7 nAChR. The data set is classed as cell-based. Conditions: for IC50: antagonistic activity, TEVC, value (95% CI), 100 µM ACh, 45 s preincubation, Figures 5 and 7. From the text:
The emerging cyclic imines toxins (CiTXs) of global distribution across coastal environments that are produced by dinoflagellates move fast up the human food chain through shellfish. The CiTX family includes 44 compounds: 7 gymnodimines (A-E, 12-methylgymnodimine and 16-desmethyl gymnodimine D), 16 spirolides (A-D, G-I, 13-desmethyl spirolide-C, 27-Hydroxy-13-desmethyl spirolide-C, 13,19-didesmethyl spirolide-C, 20-hydroxy-13,19-didesmethyl spirolide- C, 27-hydroxy-13,19-spirolide-C, 27-Oxo-13,19-didesmethyl spirolide-C, 13-desmethyl spirolide-D, 20-hydroxy-13,19-didesmethyl spirolide-D and 20-methyl spirolide-G), 8 pinnatoxins (A-H), 3 pteriatoxins (A-C), 6 prorocentrolides (A-B, 4- hydroxyprorocentrolide, 9,51-dihydro prorocentrolide, 30-sulfate prorocentrolide and 14-O-acetyl-4-hydroxyprorocentrolide), 1 spiroprorocentrimine, 2 portimines (A and B), and 1 kabirimine, (Aráoz et al. (2020) Cyclic imine toxins survey in coastal european shellfish samples: Bioaccumulation and mode of action of 28-O-palmitoyl ester of pinnatoxin-G. First report of portimine-A bioaccumulation. Harmful Algae, 98 [1]). The spiroimine moiety is the major feature characterizing cyclic imine toxins. The exception to this rule is prorocentrolides in which a hexahydroisoquinoline group replaces the spiroimine motif, (Torigoe et al. (1988) Prorocentrolide, a toxic nitrogenous macrocycle from a marine dinoflagellate, Prorocentrum-lima. Journal of the American Chemical Society, 110:7876-7877 [2]). Portimines display a 5-membered cyclic imine ring; gymnodimines, prorocentrolides, spiroprorocentrimines and kabirimine present a 6-membered imine ring, while spirolides, pinnatoxins and pteriatoxins display a 7-membered imine ring. Cyclic imine toxins are fast acting neurotoxins that, when administered intraperitoneally or by gavage at lethal doses, kill mice by respiratory arrest within minutes following blockade of neuromuscular nicotinic acetylcholine receptors (nAChR). The mode of action of several cyclic imines on nAChRs has been characterized, namely: gymnodimine-A, 13- desmethyl spirolide- C, 13,19-didesmethyl spirolide-C, 20-methyl spirolide-G, pinnatoxin-A, pinnatoxin-G, prorocentrolide-A and portimine, (Lamoise et al. (2017) Physico-chemical and functional characterization of portimine purified from Vulcanodinium rugosum strain IFR-VRU-01. In "Marine and Fresh-Water Harmful Algae". Proceedings of the 17th International Conference on Harmful Algae (Proença, L.A.O. and Hallegraeff, G. eds) pp. 126-129 ISSHA and IOC/UNESCO, Florianapolis; Molgó et al. (2017) Cyclic imine toxins from dinoflagellates: a growing family of potent antagonists of the nicotinic acetylcholine receptors. Journal of Neurochemistry, 142:41-51 [4]). They are potent antagonists of muscular and neuronal nicotinic acetylcholine receptors with pinnatoxin-A displaying picomolar affinities towards the α7 nicotinic acetylcholine receptor subtype (Aráoz et al. (2011) Total synthesis of pinnatoxins A and G and revision of the mode of action of pinnatoxin A. Journal of the American Chemical Society 133(27):10499-10511 [5]). In contrast, prorocentrolide and portimine show micromolar affinities towards the α7 nicotinic acetylcholine receptor subtype (Lamoise et al. (2017), Stivala et al. (2015) Synthesis and biology of cyclic imine toxins, an emerging class of potent, globally distributed marine toxins. Natural Product Reports, 32(3):411-435 [6]) (Table1). Table 1. Antagonistic activity of CiTX (Two-Electrodes Voltage Clamp electrophysiology).
• Figure 1 represents the chemical structure of ingrilimine according to compound (Illa) formula. • Figure 2 represents the cytotoxic activity of ingrilimine. A2780 ovarian and HT29 colorectal carcinoma cells were grown in RPMI 1640 supplemented with 10% fetal calf serum (FCS) and 1% glutamine. […]

The next data set deals with Jurkat cells. Conditions: 50 nM for 6 h; cited from earlier work.

T1 sequence (P36544 23-502): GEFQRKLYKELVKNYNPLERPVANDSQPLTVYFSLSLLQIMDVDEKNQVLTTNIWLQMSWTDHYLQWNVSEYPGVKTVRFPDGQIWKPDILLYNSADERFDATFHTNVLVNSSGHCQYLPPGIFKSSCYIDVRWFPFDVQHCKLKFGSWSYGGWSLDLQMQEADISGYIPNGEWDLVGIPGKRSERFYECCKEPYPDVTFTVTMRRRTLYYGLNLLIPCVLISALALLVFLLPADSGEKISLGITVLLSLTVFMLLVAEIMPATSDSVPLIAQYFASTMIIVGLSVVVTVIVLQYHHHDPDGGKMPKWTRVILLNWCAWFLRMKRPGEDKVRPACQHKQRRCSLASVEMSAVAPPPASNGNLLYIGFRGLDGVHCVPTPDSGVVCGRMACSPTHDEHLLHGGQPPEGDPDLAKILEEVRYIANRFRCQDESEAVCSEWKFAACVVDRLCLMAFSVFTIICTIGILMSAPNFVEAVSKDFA

Turning to `C=CC1=C[C@@H]2C[C@@H](O)[C@@H](O)/C(C)=C/C/C(C)=C/CCC3=NCCC[C@]32CC1` [Ingrilimine, ingrilimine], the “peak amplitude relative to the peak amplitude evoked by 100 µM ACh” value at human α7 nAChR subtype (agonist activity, 10 µM ingrilimine) is reported as -25%. Also, the “behaviour at micromolar concentrations” value on human α7 nAChR subtype (micromolar concentrations, antagonist at nanomolar concentrations) is “behaves as an agonist”. Also, the IC50 against human α7 nAChR subtype (nAChR subtype (nM; 95% CI) α7 (human)) was 2.3 nM and 2.29 nM. Also, the “times more potent than portimine against the human α7 nAChR subtype” value at human α7 nAChR subtype (ratio of IC50 values) is ~ 10 000 times.
For `C=CC1=C[C@@H]2[C@@H]3O[C@]4(CC[C@H](O4)[C@@H](C)C[C@@H](O)C3=O)C[C@H](O)C3=NCC[C@@]32CC1` [Portimine-A], in the data set with Jurkat cells, the “annexin V-positive cells” value was 50% and the viable cells is 50%. For the same compound, the IC50 on human α7 nAChR subtype (read-out: nAChR subtype (nM; 95% CI) α7 (human)) is 21200 nM.
